Data on 4 compounds can be found in publication PMC5889558, “The inhibition of human lung fibroblast proliferation and differentiation by Gs-coupled receptors is not predicted by the magnitude of cAMP response” (Respiratory Research, 2018).

Data set [1] in a line: Agonist concentration remaining after incubation with HLF. Conditions: after 24 h incubation with HLF; unpublished data. The class given is in vitro ADME, human.
The subject of data set [2] is human lung fibroblasts (HLF). Briefly: HLF proliferation by BrdU incorporation (DELFIA), driven by FBS or PDGF. In kind it is cell-based. Particulars: Homo sapiens, Fibroblast, inhibition of BrdU incorporation, 24 h, NC = not calculated due to incomplete curve; for EC50: mean ± SEM. Here is the method:
Proliferation of HLF was measured by incorporation of bromodeoxyuridine (BrdU). HLF were seeded overnight at 4000 cells/well in 96-well black ViewPlates, before being starved for 24 h in culture medium devoid of FBS. Proliferation was measured after incubation with a range of concentrations of FBS or PDGF, in DMEM supplemented with 0.1% w/v HSA, for 24 h.
For anti-remodelling assays using BrdU incorporation, cells were incubated for 24 h with a range of concentrations of test compounds in the presence of near maximal concentrations of FBS or PDGF in DMEM supplemented with 0.1% w/v HSA. Proliferation was assessed using the DELFIA BrdU incorporation assay kit following manufacturer protocol. Fluorescence was measured using a Packard EnVision plate reader. To account for the inter-assay variation in levels of proliferation in each experiment, data were normalized to the PDGF or FBS response.

For data set [3], the system named is human lung fibroblasts (HLF). Briefly: cAMP accumulation in HLF (HitHunter or AlphaScreen). Conditions: Homo sapiens, Fibroblast, HLF, 2 h, mean ± SEM, NC = not calculated due to incomplete curve; for EC50: room temperature, 5 μM rolipram (excluded for PDE inhibitors), at least 3 experiments, read-out: cAMP pEC50 (converted); for Emax: percentage of the maximal forskolin response, read-out: cAMP Emax (% max). The class given is cell-based. Here is the method: HLF were grown to confluency in 96-well white ViewPlates, before incubation with a range of agonist concentrations, or vehicle, for 2 h at room temperature in HBSS with 5 mM HEPES, 0.1% w/v HSA, and 5 μM rolipram. […] Rolipram was excluded when measuring cAMP levels in response to PDE inhibitors. cAMP levels were measured using either HitHunter cAMP assay or AlphaScreen competition assay following manufacturer protocol, and were assessed on either a BMG LABTEK ClarioStar or a Packard EnVision plate reader. cAMP concentrations in each well were determined using a standard curve. To account for the inter-assay variation in levels of cAMP produced in each experiment, data were normalized to the maximal forskolin response.

The subject of data set [4] is human lung fibroblasts (HLF). As to the kind of experiment: Cell viability assay, caspase-3/7 as marker of apoptosis. The class given is cell-based. Conditions: 24 h. Here is the method: Cell viability was measured using caspase-3/7 expression as a marker of apoptosis after treatment for 24 h with test compounds. HLF were seeded overnight at 6,000 cells/well in 96-well black ViewPlates, before being starved for 24 hours in culture medium devoid of FBS. Cells were incubated for 24 hours in the presence of test compounds at the top concentrations used in the proliferation assays, or in the presence of 100 nM staurosporine to induce apoptosis.
The presence of the apoptotic marker caspase-3/7 was detected by incubating cells with 8 μM CellEvent™ Caspase-3/7 Red Detection Reagent in dPBS with 5 % FBS, for 30 minutes at 37°C. […] Images were analyzed using a multi wavelength cell scoring algorithm within the MetaXpress 5.3 software, which measures cell number using stained nuclei, and percent of these cells positive for caspase-3/7 from Cy5 readouts. To account for the inter-assay variation in levels of caspase 3/7 detected in each experiment, data were normalized to the staurosporine response.
Statistical significance across treatment groups was determined by using the one-way ANOVA with Dunnett’s multiple-comparison post hoc test.

For data set [5], the system named is human lung fibroblasts (HLF). As to the kind of experiment: PDGF-mediated ERK phosphorylation (pERK imaging). Conditions: 30 min pre-incubation, 3 ng/mL PDGF for 10 min. The class given is cell-based. Here is the method: HLF were seeded overnight at 6000 cells/well in 96-well black clear bottom plates then starved for 24 h in the growth medium devoid of all additives. […] Fluorescence was then quantified on the InCell2000, using DAPI settings to visualize nuclei (0.1 s exp) and FITC settings for pERK (2 s exp). To quantify levels of pERK fluorescence, a standard Multi-Target Analysis algorithm was used in the INCell Analyzer Workstation (v3.7.1). To account for the inter-assay variation in levels of ERK phosphorylation produced in each experiment, data were normalized to the EC80 PDGF response.

Data set [6] deals with human lung fibroblasts (HLF). As to the kind of experiment: Fibroblast to myofibroblast transdifferentiation (FMT), αSMA immunofluorescence, TGFβ-driven. The class given is cell-based. Particulars: 48 h, TGFβ 0.3 ng/mL. Here is the method: To assess the differentiation of fibroblasts to the myofibroblast phenotype, immunofluorescence was used to monitor increases in α smooth muscle actin (αSMA). HLF were seeded overnight at 1000 cells/well in 384-well black clear bottom plates, before being starved for 24 h growth medium devoid of FBS.
For anti-remodelling assays using FMT, cells were incubated for 48 h with a range of concentrations of test compounds and incubated for 48 h, at 37°C, 5% CO2 in the presence of a near maximal concentration of TGFβ (0.3 ng/mL), to promote differentiation in DMEM supplemented with 0.1% w/v HSA. Following stimulation, cells were fixed in 4% paraformaldehyde, washed 3× in PBS (with Ca^2+/Mg^2+), and incubated with permeabilising blocking buffer (dPBS (with Ca^2+/Mg^2+), 10% FBS (v/v), 0.1% Triton X-100 (v/v)) for 1 h at 37°C. Wells were then washed 3× in wash buffer (Tris Buffered Saline (TBS), 0.05% (v/v) Tween-20) and incubated with mouse anti-α SMA (1:1000 dilution in permeabilising blocking buffer) for 1 h at room temperature, with gentle shaking. Following 3× wash in wash buffer, wells were incubated with blocking buffer containing Hoechst to stain for nuclear DNA (2 μM), and FITC-conjugated Affini-pure goat […] IgG (1:1000 dilution in blocking buffer) for 30 min at 37°C. Fluorescence was then quantified on a widefield ImageXpress Micro microscope, with a Plan Fluor 20X objective, DAPI filter cube (excitation 400–418 nm, emission 435–470 nm), 50 ms exposure time for nuclei, and FITC filter cube (excitation 467–498 nm, emission 513–556 nm), 200 ms exposure time for αSMA.
To quantify increases in αSMA fluorescence, a standard Multi-Wavelength Cell Scoring algorithm was used in MetaXpress 5.3 software (Molecular Devices, California, USA). To account for the inter-assay variation in levels of αSMA expression produced in each experiment, data were normalized to the response to TGFβ.

Data set [7] deals with human lung fibroblasts (HLF). The data set is described as above. The class given is cell-based. Particulars: data not shown.
[8] abbreviates: EC80 PDGF, percentage of maximal proliferation observed with PDGF, read-out: Proliferation vs PDGF Emax (% max).
[9] abbreviates: EC80 concentration of PDGF, read-out: Proliferation vs PDGF pEC50 (converted).
The mark [10] stands for this setting: EC80 concentration of serum, read-out: Proliferation vs serum pEC50 (converted).
Where [11] appears, read: EC80 serum, percentage of maximal proliferation observed with serum, read-out: Proliferation vs serum Emax (% max).

Bounds are passed on as bounds.

For the compound `CCCCC[C@H](O)CC[C@@H]1[C@H]2Cc3cccc(OCC(=O)O)c3C[C@H]2C[C@H]1O` [Treprostinil], the “original concentration of agonist remaining” value in data set [1] is reported as more than 90%. Also, the Emax in data set [2] (setting [8]) is 63.7 ± 6.39%; in data set [2] (setting [11]), 42.5 ± 5.36%; in data set [3], 101 ± 0.58%. Moreover, the EC50 in data set [2] (setting [9]) was 29.5 nM; in data set [2] (setting [10]) it was 102 nM; in data set [3] it was 151 nM. Besides, the “% cells positive for caspase-3/7, 1:10 dilution” value (“% cells positive … 1:10 dilution” below) in data set [4] (human, 1 μM) is given as 0.92 ± 0.25%. For the same compound, the “% cells positive for caspase-3/7, Top conc” value (from here on “% cells positive … Top conc”) in data set [4] (human, 10 μM) is 0.76 ± 0.06%.

As to `C=C[C@@]1(C)CC(=O)[C@]2(O)[C@@]3(C)[C@@H](O)CCC(C)(C)[C@@H]3[C@H](O)[C@H](OC(C)=O)[C@@]2(C)O1` [Forskolin], the Emax in data set [2] (setting [8]) is 90.8 ± 9.12%; in data set [2] (setting [11]) it was 74 ± 6.7%. Also, the figures for the EC50 in data set [2] (setting [9]) and in data set [2] (setting [10]) were 1050 nM and 5250 nM, respectively. Moreover, the “inhibition of PDGF-mediated ERK phosphorylation (in words)” value in data set [5] is on record as “inhibited PDGF-mediated ERK phosphorylation”. Also, in data set [6], the “inhibition of TGFβ-driven FMT (in words)” value is on record as “completely inhibit FMT”. For the same compound, the “% cells positive … 1:10 dilution” value in data set [4] (human, 3 μM) is on record as 0.61 ± 0.15%. In data set [4] (human, 30 μM), the “% cells positive … Top conc” value is 1.26 ± 0.35%.

Consider Transforming growth factor β [TGFβ], for which the “EC50 for promoting FMT” value in data set [7] was 0.07 ± 0.01 ng/mL.

Turning to `CC(C)N(CCCCOCC(=O)O)c1cnc(-c2ccccc2)c(-c2ccccc2)n1` [MRE-269], the “original concentration of agonist remaining” value in data set [1] is more than 90%. The Emax is 85.7 ± 7.65% in data set [2] (setting [8]) and 52.9 ± 4.36% in data set [3]. Besides, the figures for the EC50 in data set [2] (setting [9]) and in data set [3] were 316 nM and 178 nM, respectively. In addition, the “inhibition of TGFβ-driven FMT (in words)” value in data set [6] was “completely inhibit FMT”. Moreover, the “% cells positive … 1:10 dilution” value in data set [4] (HLF, 1:10 dilution of top conc 10 μM) came to 0.49 ± 0.22%. Also, in data set [4] (HLF, top conc 10 μM, mean ± SEM, n=3), the “% cells positive … Top conc” value is given as 0.49 ± 0.21%.
